This is an account of results in patent US12545685B2 (Daiichi Sankyo Company, Limited, priority 2011, dated 2026).

For this assay, the target named is T1, Mdm2/p53 binding (GST-Mdm2 / His-p53) (Homo sapiens, UniProt Q00987, L33E).
T1 construct: Mdm2 partial protein having Mdm2 amino acids at positions 25 to 108
Briefly: Mdm2/p53 binding assay (HTRF, His-p53 and GST-Mdm2). To be noted: His-p53 (aa 1-132) and GST-Mdm2 (aa 25-108, L33E) 6.25 nM each; 25°C, 1 hour; values given as ranges. The essentials: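 Binding was detected by HTRF (ex 320 nm, em 620/665 nm) after 1 h at 25 °C, using Eu-cryptate anti-GST and XL665 anti-His antibodies. The protein pair was GST-Mdm2 (residues 25–108, L33E) with His-p53 (residues 1–132), each 6.25 nM in the protein dilution. T/C used no-compound control and no-p53 background, and IC50 came from sigmoid fitting.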

By IC50 is commonly meant the concentration that gives 50% inhibition. The low end stands for greater potency, the high end for weaker potency.

T1 sequence (Q00987 25-108 L33E): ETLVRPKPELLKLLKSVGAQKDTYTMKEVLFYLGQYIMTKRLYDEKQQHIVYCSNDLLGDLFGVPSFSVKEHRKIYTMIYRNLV

With `CC1(C)CCC2(CC1)N[C@@H](C(=O)N[C@@H]1CC[C@@H](C(C)(C)O)OC1)[C@H](c1cccc(Cl)c1F)[C@]21C(=O)Nc2cc(Cl)ccc21` [Example 46, (3′R, 4′S,5′R)-6″-chloro-4′-(3-chloro-2-fluorophenyl)-N-[(3R,6S)-6-(1-hydroxy-1-methylethyl)tetrahydro-2H-pyran-3-yl]-4,4-dimethyl-2′-oxo-1″; 2″-dihydrodispiro[cyclohexane-1,2′-pyrrolidine-3′,3″-indole]-5′-carboxamide], the IC50 fell in the range of 1 to 50 nM. In turn, `CC1(C)CCC2(CC1)N[C@@H](C(=O)N[C@@H]1CC[C@@H](c3ncon3)OC1)[C@H](c1ccnc(Cl)c1F)[C@]21C(=O)Nc2nc(Cl)ccc21` [Example 66, (3′R, 4′S,5′R)-6″-chloro-4′-(2-chloro-3-fluoropyridin-4-yl)-4,4-dimethyl-N-[(3R,6S)-6-(1,2,4-oxadiazol-3-yl)tetrahydro-2H-pyran-3-yl]-2″-oxo-1″,2″-dihydrodispiro[cyclohexane-1,2′-pyrrolidine-3′,3″-pyrrolo[2,3-b]pyridine]-5′-carboxamide] came in with an IC50 of 50 to 100 nM.

For `O=C(N[C@H]1CC[C@H](O)CC1)[C@@H]1NC2(CC(CF)(CF)C2)[C@@]2(C(=O)Nc3cc(Cl)ccc32)[C@H]1c1cccc(Cl)c1F` (relative stereo) [Example 121, (3′R, 4′S,5′R)-6″-chloro-4′-(3-chloro-2-fluorophenyl)-3,3-bis(fluoromethyl)-N-(trans-4-hydroxycyclohexyl)-2″-oxo-1″,2″-dihydrodispiro[cyclobutane-1,2′-pyrrolidine-3′,3″-indole]-5′-carboxamide], the IC50 fell in the range of 50 to 100 nM. `CC1(C)CCC2(CC1)N[C@@H](C(=O)N[C@@H]1CC[C@@H](CNS(C)(=O)=O)OC1)[C@H](c1ccnc(Cl)c1F)[C@]21C(=O)Nc2cc(Cl)ccc21` [Example 166, (3′R, 4′S,5′R)-6″-chloro-4′-(2-chloro-3-fluoropyridin-4-yl)-4,4-dimethyl-N-[(3R,6S)-6-{[(methylsulfonyl)amino]methyl}tetrahydro-2H-pyran-3-yl]-2″-oxo-1″,2″-dihydrodispiro[cyclohexane-1,2′-pyrrolidine-3′,3″-indole]-5′-carboxamide] displayed an IC50 of 50 to 100 nM. As for `CC1(C)CCC2(CC1)N[C@@H](C(=O)NC1(C)CC[C@@H](C(N)=O)OC1)[C@H](c1ccnc(Cl)c1F)[C@]21C(=O)Nc2cc(Cl)ccc21` (stereo partly drawn) [Example 189, (3′R, 4′S,5′R)—N-[(6S)-6-carbamoyl-3-methyltetrahydro-2H-pyran-3-yl]-6″-chloro-4′-(2-chloro-3-fluoropyridin-4-yl)-4,4-dimethyl-2″-oxo-1′1,2″-dihydrodispiro[cyclohexane-1,2′-pyrrolidine-3′,3″-indole]-5′-Carboxamide], the IC50 fell in the range of 1 to 50 nM.

As to `CN(C)C(=O)[C@H]1CC[C@H](NC(=O)[C@@H]2NC3(CC(CF)(CF)C3)[C@@]3(C(=O)Nc4cc(Cl)ccc43)[C@H]2c2cccc(Cl)c2F)CC1` [Example 148, (3′R, 4′S,5′R)-6″-chloro-4′-(3-chloro-2-fluorophenyl)-N-[trans-4-(dimethylcarbamoyl)cyclohexyl]-3,3-bis(fluoromethyl)-2″-oxo-1″,2″-dihydrodispiro[cyclobutane-1,2′-pyrrolidine-3′,3″-indole]-5′-carboxamide], the IC50 was 1 to 50 nM.

`C[C@H]1O[C@H](CO)CC[C@H]1NC(=O)[C@@H]1NC2(CCC(C)(C)CC2)[C@@]2(C(=O)Nc3cc(Cl)ccc32)[C@H]1c1ccnc(Cl)c1F` [Example 105, (3′R, 4′S,5′R)-6″-chloro-4′-(2-chloro-3-fluoropyridin-4-yl)-N-[(2R,3R,6S)-6-(hydroxymethyl)-2-methyltetrahydro-2H-pyran-3-yl]-4,4-dimethyl-2″-oxo-1″,2″-dihydrodispiro[cyclohexane-1,2′-pyrrolidine-3′,3″-indole]-5′-carboxamide] had an IC50 of 1 to 50 nM. On to `CC1(C)CCC2(CC1)N[C@@H](C(=O)N[C@H]1CC[C@H](N3CC(O)C3)CC1)[C@H](c1ccnc(Cl)c1F)[C@]21C(=O)Nc2cc(Cl)ccc21` [Example 72, (3′R, 4′S,5′R)-6″-chloro-4′-(2-chloro-3-fluoropyridin-4-yl)-N-[trans-4-(3-hydroxyazetidine-1-yl)cyclohexyl]-4,4-dimethyl-2″-oxo-1″,2″-dihydrodispiro[cyclohexane-1,2′-pyrrolidine-3′,3″-indole]-5′-carboxamide], for which the IC50 lay in the range of 1 to 50 nM. The same measure for `CC1(C)CCC2(CC1)N[C@@H](C(=O)N[C@H]1CC[C@H](c3noc(=O)[nH]3)CC1)[C@H](c1cccc(Cl)c1F)[C@]21C(=O)Nc2nc(Cl)ccc21` (relative stereo) [Example 49, (3′R, 4′S,5′R)-6″-chloro-4′-(3-chloro-2-fluorophenyl)-4,4-dimethyl-2″-oxo-N-[trans-4-(5-oxo-4,5-dihydro-1,2,4-oxadiazol-3-yl)cyclohexyl]-1″,2″-dihydrodispiro[cyclohexane-1,2′-pyrrolidine-3′,3″-pyrrolo[2,3-b]pyridine]-5′-carboxamide]: 1 to 50 nM. The same measure for `CC1(C)CCC2(CC1)N[C@@H](C(=O)N[C@@H]1CC[C@@H](c3nnco3)OC1)[C@H](c1ccnc(Cl)c1F)[C@]21C(=O)Nc2nc(Cl)ccc21` [Example 50, (3′R, 4′S,5′R)-6″-chloro-4′-(2-chloro-3-fluoropyridin-4-yl)-4,4-dimethyl-N-[(3R,6S)-6-(1,3,4-oxadiazol-2-yl)tetrahydro-2H-pyran-3-yl]-2″-oxo-1″,2″-dihydrodispiro[cyclohexane-1,2′-pyrrolidine-3′,3″-pyrrolo[2,3-b]pyridine]-3′-carboxamide]: 50 to 100 nM; for `CC1(C)CCC2(CC1)N[C@@H](C(=O)N[C@H]1CC[C@](O)(CS(C)(=O)=O)CC1)[C@H](c1ccnc(Cl)c1F)[C@]21C(=O)Nc2cc(Cl)ccc21` [Example 87, (3′R, 4′S,5′R)-6″-chloro-4′-(2-chloro-3-fluoropyridin-4-yl)-N-{cis-4-hydroxy-4-[(methylsulfonyl)methyl]cyclohexyl}-4,4-dimethyl-2″-oxo-1″,2′-dihydrodispiro[cyclohexane-1,2′-pyrrolidine-3′,3″-indole]-5′-carboxamide]: 1 to 50 nM; for `O=C(N[C@@H]1CC[C@@H](CO)OC1)[C@@H]1NC2(CC(CF)(CF)C2)[C@@]2(C(=O)Nc3cc(Cl)ccc32)[C@H]1c1cc(F)cc(Cl)c1F` [Example 176, (3′R, 4′S,5′R)-6″-chloro-4′-(3-chloro-2,5-difluorophenyl)-3,3-bis(fluoromethyl)-N-[(3R,6S)-6-(hydroxymethyl)tetrahydro-2H-pyran-3-yl]-2″-oxo-1″,2″-dihydrodispiro[cyclobutane-1,2′-pyrrolidine-3′,3″-indole]-5′-carboxamide]: 1 to 50 nM. The same measure for `COC[C@]1(O)CC[C@@H](NC(=O)[C@@H]2NC3(CCC(C)(C)CC3)[C@@]3(C(=O)Nc4nc(Cl)ccc43)[C@H]2c2ccnc(Cl)c2F)CC1` [Example 80, (3′R, 4′S,5′R)-6″-chloro-4′-(2-chloro-3-fluoropyridin-4-yl)-N-[cis-4-hydroxy-4-(methoxymethyl)cyclohexyl]-4,4-dimethyl-2″-oxo-1″,2″-dihydrodispiro[cyclohexane-1,2′-pyrrolidine-3′,3″-pyrrol[2,3-b]pyridine]-5′-carboxamide]: 50 to 100 nM; for `CC1(C)CCC2(CC1)N[C@@H](C(=O)N[C@H]1CC[C@H](c3nncs3)CC1)[C@H](c1ccnc(Cl)c1F)[C@]21C(=O)Nc2cc(Cl)ccc21` [Example 155, (3′R, 4′S,5′R)-6″-chloro-4′-(2-chloro-3-fluoropyridin-4-yl)-4,4-dimethyl-2″-oxo-N-[trans-4-(1,3,4-thiadiazol-2-yl)cyclohexyl]-1″,2″-dihydrodispiro[cyclohexane-1,2′-pyrrolidine-3′,3″-indole]-5′-carboxamide]: 50 to 100 nM. For `C[C@@H](O)c1nnc([C@H]2CC[C@H](NC(=O)[C@@H]3NC4(CCC(C)(C)CC4)[C@@]4(C(=O)Nc5cc(Cl)ccc54)[C@H]3c3ccnc(Cl)c3F)CC2)o1` [Example 132, (3′R, 4′S, S′R)-6″-chloro-4′-(2-chloro-3-fluoropyridin-4-yl)-N-(trans-4-{5-[(1R)-1-hydroxyethyl]-1,3,4-oxadiazol-2-yl}cyclohexyl)-4,4-dimethyl-2″-oxo-1″,2″-dihydrodispiro[cyclohexane-1,2′-pyrrolidine-3′,3″-indole]-5′-carboxamide], the IC50 was 50 to 100 nM. With `CNC(=O)c1cc(Cl)cc([C@H]2[C@H](C(=O)N[C@H]3CC[C@H](O)CC3)NC3(CCC(C)(C)CC3)[C@@]23C(=O)Nc2cc(Cl)ccc23)c1` (relative stereo) [Example 21, (3′R, 4′R, 5′R)-6″-chloro-4′-[3-chloro-5-(methylcarbamoyl)phenyl]-N-(trans-4-hydroxycyclohexyl)-4,4-dimethyl-2″-oxo-1″,2″-dihydrodispiro[cyclohexane-1,2′-pyrrolidine-3′,3″-indole]-5′-carboxamide], the IC50 was 1 to 50 nM. In turn, `CO[C@]1(CO)CC[C@H](NC(=O)[C@@H]2NC3(CCC(C)(C)CC3)[C@@]3(C(=O)Nc4cc(Cl)ccc43)[C@H]2c2cccc(Cl)c2F)CC1` [Example 73, (3′R, 4′S,5′R)-6″-chloro-4′-(3-chloro-2-fluorophenyl)-N-[cis-4-(hydroxymethyl)-4-methoxycyclohexyl]-4,4-dimethyl-2″-oxo-1″,2″-dihydrodispiro[cyclohexane-1,2′-pyrrolidine-3′,3″-indole]-5′-carboxamide] came in with an IC50 of 50 to 100 nM. The same measure for `CN(C)C(=O)[C@@H]1CC[C@@H](NC(=O)[C@@H]2NC3(CCC(C)(C)CC3)[C@@]3(C(=O)Nc4cc(Cl)ccc43)[C@H]2c2ccnc(Cl)n2)CO1` [Example 140, (3′R, 4′R, 5′R)-6″-chloro-4′-(2-chloropyrimidin-4-yl)-N-[(3R,6S)-6-(dimethylcarbamoyl)tetrahydro-2H-pyran-3-yl]-4,4-dimethyl-2″-oxo-1″,2″-dihydrodispiro[cyclohexane-1,2′=pyrrolidine-3′,3″-indole]-5′-carboxamide]: 50 to 100 nM.
